Holding throughout (assay): NCI tumour cell line growth inhibition, 48 h
For assay [1], the system named is K-562 leukemia.
Assay [2] has as its system OVCAR-4 ovarian.
For assay [3], the system named is LOX IMVI melanoma.
Assay [4] relates to SR leukemia.
The test system of assay [5] is HOP-92 NSCLC.
The subject of assay [6] is RXF 393 renal.
Assay [7] has as its system SK-OV-3 ovarian.
In assay [8] the test system is UACC-62 melanoma.
Assay [9] relates to RPMI-8226 leukemia.
The test system of assay [10] is PC-3 prostate.

Each structure is given as a SMILES string.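 Compound exposure: 48 hours, 5 concentrations, 96-well plates. GI50: concentration for 50% inhibition of growth. TGI marks complete inhibition of growth.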 Where only a bound is given, the exact number is not on record here.

From PubChem BioAssay (NCI) come the findings set out here.

With `Cc1cc(C)nc(NS(=O)(=O)c2ccc(Nc3c4ccc(Cl)cc4nc4c(C(=O)NCCN(C)C)cccc34)cc2)n1`, the TGI in assay [1], in [2], in assay [3], in assay [4], in [5] and in assay [6] was > 100 µM throughout. Also, the TGI in assay [7], in [8] and in assay [9] was > 100 µM throughout.

For the compound `O=C(c1ccco1)c1c(C(F)(F)F)n([O-])c2ccc(Cl)cc2[n+]1=O`, the GI50 in assay [1] was 0.116 µM; in [2], 1.55 µM; in assay [10], 0.294 µM; in assay [3] it was 0.0951 µM; in assay [4], 0.204 µM; in assay [6] it was 1.38 µM. For the same compound, the results for the GI50 in assay [7] and in assay [8] were 2.09 µM and 0.574 µM, respectively. For the same compound, the TGI in assay [1] was 5.1 µM; in assay [2], 5.73 µM; in [10], 1.07 µM; in [3], 0.287 µM; in assay [4], 0.574 µM; in assay [6], 3.83 µM. For the same compound, the TGI was determined as 5.63 µM in [7] and 1.99 µM in [8].

Consider `CCCCCCCCn1ccc2cc(NC(=O)Cn3cc(CN4CCCCC4)nn3)ccc21`, for which the GI50 was 3.66 µM in assay [2]; 1.43 µM in assay [10]; 1.63 µM in [3]; 1.67 µM in assay [4]; 0.601 µM in assay [5]; 1.46 µM in assay [6]. In addition, the results for the GI50 in assay [7] and in assay [8] were 1.89 µM and 1.81 µM, respectively. For the same compound, the TGI in [2] was 14.3 µM; in [10], 3.05 µM; in [3] it was 3.17 µM; in assay [4] it was > 100 µM; in assay [5] it was 2.21 µM; in assay [6], 3.06 µM. The TGI in assay [7] worked out at 3.97 µM; in [8], 3.51 µM.

With `Clc1ccc(-c2c(C3=NCCCN3)nnn2-c2ccccc2)cc1`, the TGI was > 100 µM in assay [1]; > 100 µM in assay [2]; 55.7 µM in assay [3]; > 100 µM in [4]; > 100 µM in assay [5]; > 100 µM in assay [6]. Besides, the TGI in [7] and in [8] was > 100 µM throughout.

In the case of `NCC1OC(OC2C(CO)OC(OC3C(O)C(N)CC(N)C3OC3OC(CO)C(O)CC3N)C2O)C(N)C(O)C1OC1OC(CO)C(O)C(O)C1O` (stereo unspecified), the GI50 was > 50 µg/mL in assay [1]; > 50 µg/mL in assay [10]; > 50 µg/mL in assay [3]; > 50 µg/mL in assay [4]; 14.7 µg/mL in [5]; > 50 µg/mL in [7]. The GI50 in assay [8] and in assay [9] was > 50 µg/mL each time. Moreover, the TGI in assay [1], in assay [10], in assay [3], in [4], in assay [5] and in assay [7] was > 50 µg/mL each time. Besides, the TGI in [8] and in [9] was > 50 µg/mL throughout.

In the case of `C=C[C@]1(C)CCC2=C(CCC3C2(C)CCC[C@@]3(C)COC(C)=O)C1` (stereo partly specified), the TGI is 33.5 µM in [1]; > 100 µM in assay [2]; 33.8 µM in [3]; 35.8 µM in [4]; 35 µM in assay [5]; 37.8 µM in [6]. The TGI in [7] was determined as 33 µM; in assay [8] it was 45.8 µM; in assay [9] it was 35.6 µM.

For `COc1ccc(Nc2cc(C)nc(NCCCNc3ccnc4cc(Cl)ccc34)n2)cc1`, the GI50 in assay [1] was 0.495 µM; in assay [2], 1.44 µM; in assay [10], 2.35 µM; in assay [3] it was 1.4 µM; in assay [4], 0.778 µM; in assay [5], 1.24 µM. In addition, the GI50 in assay [7] was 1.67 µM; in assay [8] it was 1.81 µM; in assay [9], 1.81 µM. Moreover, the TGI came to 2.28 µM in [1]; 4.86 µM in assay [2]; 9.9 µM in assay [10]; 2.85 µM in [3]; 3.62 µM in assay [4]; 3.3 µM in [5]. The TGI in assay [7] is 3.2 µM; in assay [8] it was 3.44 µM; in assay [9], 5 µM.

On to `Cc1ccc2c(c1)S(=O)(=O)c1ccc3ccccc3c1N2`, for which the TGI is > 100 µM in assay [1]; > 100 µM in assay [2]; > 100 µM in assay [10]; > 100 µM in assay [3]; 69.5 µM in assay [4]; > 100 µM in [5]. The TGI in [6], in assay [7] and in [8] was > 100 µM each time.

In the case of `COc1ccc2nc3cc(Cl)ccc3c(Sc3ccc([N+](=O)[O-])cc3)c2c1`, the GI50 in assay [1], in assay [2], in assay [3], in assay [5], in [6] and in assay [7] was > 100 µM each time. Also, in assay [8], the GI50 is > 100 µM. Further, the TGI was > 100 µM in assay [1]; > 100 µM in assay [2]; > 100 µM in assay [3]; > 10 µM in assay [4]; > 100 µM in assay [5]; > 100 µM in [6]. Further, the TGI in assay [7], in assay [8] and in assay [9] was > 100 µM in each case.

Consider `COc1ccc(C(=O)C(c2ccc(OCc3ccccc3)cc2)c2ccc(OCc3ccccc3)cc2)cc1`, for which the TGI in assay [1], in assay [2], in [3], in assay [4], in [5] and in assay [6] was > 100 µM throughout. The TGI in assay [7], in [8] and in assay [9] was > 100 µM each time.

With `COc1cc([N+](=O)[O-])c(OC)cc1-c1nc2sc(Cl)cn2c1/C=N/NC1=NCCN1`, the GI50 in assay [1] is 3.56 µM; in [10] it was 1.71 µM; in assay [3], 1.74 µM; in [4] it was 0.228 µM; in [7] it was 1.88 µM. The TGI was > 100 µM in assay [1]; 3.16 µM in [10]; 3.25 µM in assay [3]; 0.45 µM in assay [4]; 3.48 µM in [7].
